In patent publication US12371454B2, “Cyclic peptide compound having Kras inhibitory action” (priority 2019, dated 2025):
Starred links: 1 amine or outer side, 2 acyl side, 3 side chain; linkers in the order of their positions; H or OH if unused. Positions of bridges follow the written chain, without caps; N, C: chain ends. Non-standard residues stand in square brackets, D forms with d. Residues, ends and D or L forms follow the SMILES beside them. *: point of attachment. hPhe(3-Cl-4-CF3) = N[C@@H](CCc1ccc(C(F)(F)F)c(Cl)c1)C(=O)O; NMePhe(4-Me) = CN[C@@H](Cc1ccc(C)cc1)C(=O)O; NMedβ3hAla = C[C@H](CC(=O)[*:2])N(C)[*:1]; NMeGly(cPent) = CN[C@H](C(=O)O)C1CCCC1; NMeCha = CN[C@@H](CC1CCCCC1)C(=O)O; NMeGly(cPr) = CN[C@H](C(=O)O)C1CC1; NMeCba = CN[C@@H](CC1CCC1)C(=O)O; NMeChg = CN[C@H](C(=O)O)C1CCCCC1; NMeI = CC[C@H](C)[C@H](NC)C(=O)O; NMeD = CN[C@@H](CC(=O)O)C(=O)O; NMeL = CN[C@@H](CC(C)C)C(=O)O; NMeV = CN[C@H](C(=O)O)C(C)C; d(β3hA) = C[C@@H](N)CC(=O)O; NMeAbu = CC[C@H](NC)C(=O)O; NMeS = CN[C@@H](CO)C(=O)O; NMeA = CN[C@@H](C)C(=O)O; Piperidide = C1CCN(*)CC1; Pyrrolidide = C1CCN(*)C1; dNMeA = CN[C@H](C)C(=O)O; Ac5c = NC1(C(=O)O)CCCC1; Aze = O=C(O)[C@@H]1CCN1; Aib = CC(C)(N)C(=O)O; Cyclopropyl = C1CC1*; Sar = CNCC(=O)O

Columns and labels:
[1] = molecular target: T1, Kras and SOS1 (biotin-tagged human Kras loaded with GDP, His-tagged human SOS1) (Homo sapiens, UniProt P01116, G12D); assay: Protein-protein interaction inhibition between Kras and SOS1 (KrasGl2D-SOS PPI) using AlphaScreen; type: binding; conditions: AlphaScreen; biotin-tagged human Kras loaded with GDP, His-tagged human SOS1; read-out: KRAS G12D-SOS PPI IC50
T1 construct: made in house; host or cells: E. coli (stated for Kras only)
How it was run: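 Binding between SOS1 and Kras is detected as bead-proximity luminescence: illuminate Ni-conjugated donors (680 nm), collect 520-620 nm emission from streptavidin-conjugated acceptors; Kras carries biotin and GDP loaded after purification, SOS1 carries a His tag.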

[2] = tested on: Human pancreatic cancer cell line AsPC-1; assay: Measurement of AsPC-1 cell growth inhibition (AsPC-1 CGI); type: cell-based; conditions: 96 h
How it was run: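 AsPC-1 cells in 15% FBS RPMI-1640 were exposed to test compound for 96 hours at 37° C, with CellTiter-Glo as endpoint.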

T1 sequence (P01116 1-188 isoform P01116-2 G12D): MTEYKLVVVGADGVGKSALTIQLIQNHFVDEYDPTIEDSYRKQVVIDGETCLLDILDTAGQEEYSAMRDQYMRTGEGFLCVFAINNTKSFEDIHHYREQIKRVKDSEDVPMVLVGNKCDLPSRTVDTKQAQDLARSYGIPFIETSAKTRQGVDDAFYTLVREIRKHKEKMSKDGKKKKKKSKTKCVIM

SMILES	IC50 [1] [nM]	IC50 [2] [nM]
CC[C@H](C)[C@@H]1NC(=O)[C@H](CC(C)C)N(C)C(=O)C[C@@H](C(=O)N2CCCCC2)N(C)C(=O)[C@H](C(C)C)N(C)C(=O)C(C)(C)NC(=O)[C@@H]2CCCN2C(=O)[C@H](CCc2ccc(C(F)(F)F)c(Cl)c2)NC(=O)CN(C)C(=O)[C@H](CC2CCCCC2)N(C)C(=O)[C@@H]2CCN2C(=O)[C@H](C)N(C)C1=O [Compound 1751] ([NMeL]I[NMeA][Aze][NMeCha][Sar][hPhe(3-Cl-4-CF3)]P[Aib][NMeV][NMeD]-Piperidide; lactam N-11)	7.3	100 to 500
CC[C@H](C)[C@@H]1NC(=O)[C@H](CC(C)C)N(C)C(=O)C[C@@H](C(=O)N2CCCC2)N(C)C(=O)[C@H](C2CCCCC2)N(C)C(=O)C2(CCCC2)NC(=O)[C@@H]2CCCN2C(=O)[C@H](CCc2ccc(C(F)(F)F)c(Cl)c2)NC(=O)CN(C)C(=O)[C@H](CC2CCCCC2)N(C)C(=O)CN(C)C(=O)CN(C)C1=O [Compound 1757] ([NMeL]I[Sar][Sar][NMeCha][Sar][hPhe(3-Cl-4-CF3)]P[Ac5c][NMeChg][NMeD]-Pyrrolidide; lactam N-11)	0.43	20 to 50
CC[C@H](C)[C@@H]1NC(=O)[C@H](CC(C)C)N(C)C(=O)C[C@@H](C(=O)N2CCCC2)N(C)C(=O)[C@H](C2CCCC2)N(C)C(=O)C2(CCCC2)NC(=O)[C@@H]2CCCN2C(=O)[C@H](CCc2ccc(C(F)(F)F)c(Cl)c2)NC(=O)CN(C)C(=O)[C@H](Cc2ccc(C)cc2)N(C)C(=O)CN(C)C(=O)CN(C)C1=O [Compound 1761] ([NMeL]I[Sar][Sar][NMePhe(4-Me)][Sar][hPhe(3-Cl-4-CF3)]P[Ac5c][NMeGly(cPent)][NMeD]-Pyrrolidide; lactam N-11)	0.41	20 to 50
CC[C@H](C)[C@@H]1NC(=O)[C@H](CC(C)C)N(C)C(=O)C[C@@H](C(=O)N(C)C)N(C)C(=O)[C@H](C2CCCCC2)N(C)C(=O)C2(CCCC2)NC(=O)[C@@H]2CCCN2C(=O)[C@H](CCc2ccc(C(F)(F)F)c(Cl)c2)NC(=O)CN(C)C(=O)[C@H](Cc2ccc(C)cc2)N(C)C(=O)CN(C)C(=O)CN(C)C1=O [Compound 1762] ([NMeL]I[Sar][Sar][NMePhe(4-Me)][Sar][hPhe(3-Cl-4-CF3)]P[Ac5c][NMeChg][NMeD]-NMe2; lactam N-11)	0.37	20 to 50
CC(C)C[C@H]1C(=O)N[C@@H](COC2CC2)C(=O)N(C)CC(=O)N(C)CC(=O)N(C)[C@@H](CC2CCCCC2)C(=O)N(C)CC(=O)N[C@@H](CCc2ccc(C(F)(F)F)c(Cl)c2)C(=O)N2CCC[C@H]2C(=O)NC2(CCCC2)C(=O)N(C)[C@@H](C2CCCCC2)C(=O)N(C)[C@H](C(=O)N2CCCCC2)CC(=O)N1C [Compound 1766] ([NMeL]S(Cyclopropyl)[Sar][Sar][NMeCha][Sar][hPhe(3-Cl-4-CF3)]P[Ac5c][NMeChg][NMeD]-Piperidide; lactam N-11)	3.6	100 to 500
CC[C@H](C)[C@@H]1NC(=O)[C@H](CC)N(C)C(=O)C[C@@H](C(=O)N2CCCCC2)N(C)C(=O)[C@H](C2CCCCC2)N(C)C(=O)C2(CCCC2)NC(=O)[C@@H]2CCCN2C(=O)[C@H](CCc2ccc(C(F)(F)F)c(Cl)c2)NC(=O)CN(C)C(=O)[C@H](CC2CCCCC2)N(C)C(=O)CN(C)C(=O)CN(C)C1=O [Compound 1770] ([NMeAbu]I[Sar][Sar][NMeCha][Sar][hPhe(3-Cl-4-CF3)]P[Ac5c][NMeChg][NMeD]-Piperidide; lactam N-11)	0.71	50 to 100
CC[C@H](C)[C@@H]1NC(=O)[C@H](CC(C)C)N(C)C(=O)C[C@@H](C)NC(=O)[C@H]([C@@H](C)CC)N(C)C(=O)C2(CCCC2)NC(=O)[C@@H]2CCCN2C(=O)[C@H](CCc2ccc(C(F)(F)F)c(Cl)c2)NC(=O)CN(C)C(=O)[C@H](Cc2ccc(C)cc2)N(C)C(=O)CN(C)C(=O)CN(C)C1=O [Compound 1774] (cyclo([Ac5c][NMeI][d(β3hA)][NMeL]I[Sar][Sar][NMePhe(4-Me)][Sar][hPhe(3-Cl-4-CF3)]P))	0.84	100 to 500
CC[C@H](C)[C@@H]1NC(=O)[C@H](C)N(C)C(=O)C[C@@H](C)N(C)C(=O)[C@H](C(C)C)N(C)C(=O)C2(CCCC2)NC(=O)[C@@H]2CCCN2C(=O)[C@H](CCc2ccc(C(F)(F)F)c(Cl)c2)NC(=O)[C@@H](C)N(C)C(=O)[C@H](CC2CCCCC2)N(C)C(=O)[C@@H]2CCCN2C(=O)CN(C)C1=O [Compound 1784] (cyclo([Ac5c][NMeV][NMedβ3hAla][NMeA]I[Sar]P[NMeCha][dNMeA][hPhe(3-Cl-4-CF3)]P))	11	50 to 100
CC[C@H](C)[C@@H]1NC(=O)[C@H](COC2CC2)N(C)C(=O)C[C@@H](C(=O)N2CCCCC2)N(C)C(=O)[C@H](C2CCCCC2)N(C)C(=O)C2(CCCC2)NC(=O)[C@@H]2CCCN2C(=O)[C@H](CCc2ccc(C(F)(F)F)c(Cl)c2)NC(=O)CN(C)C(=O)[C@H](CC2CCCCC2)N(C)C(=O)CN(C)C(=O)CN(C)C1=O [Compound 1786] ([NMeS](Cyclopropyl)I[Sar][Sar][NMeCha][Sar][hPhe(3-Cl-4-CF3)]P[Ac5c][NMeChg][NMeD]-Piperidide; lactam N-11)	0.72	50 to 100
CC[C@H](C)[C@@H]1NC(=O)[C@H](CC(C)C)N(C)C(=O)C[C@@H](C(=O)N2CCCC2)N(C)C(=O)[C@H]([C@@H](C)CC)N(C)C(=O)C2(CCCC2)NC(=O)[C@@H]2CCCN2C(=O)[C@H](CCc2ccc(C(F)(F)F)c(Cl)c2)NC(=O)CN(C)C(=O)[C@H](Cc2ccc(C)cc2)N(C)C(=O)CN(C)C(=O)CN(C)C1=O [Compound 1790] ([NMeL]I[Sar][Sar][NMePhe(4-Me)][Sar][hPhe(3-Cl-4-CF3)]P[Ac5c][NMeI][NMeD]-Pyrrolidide; lactam N-11)	0.7	20 to 50
CC[C@H](C)[C@@H]1NC(=O)[C@H](C2CC2)N(C)C(=O)C[C@@H](C(=O)N2CCCCC2)N(C)C(=O)[C@H](C2CCCCC2)N(C)C(=O)C2(CCCC2)NC(=O)[C@@H]2CCCN2C(=O)[C@H](CCc2ccc(C(F)(F)F)c(Cl)c2)NC(=O)CN(C)C(=O)[C@H](CC2CCCCC2)N(C)C(=O)CN(C)C(=O)CN(C)C1=O [Compound 1796] ([NMeGly(cPr)]I[Sar][Sar][NMeCha][Sar][hPhe(3-Cl-4-CF3)]P[Ac5c][NMeChg][NMeD]-Piperidide; lactam N-11)	0.76	100 to 500
CC(C)C[C@H]1C(=O)N[C@@H](C(C)C)C(=O)N(C)CC(=O)N(C)CC(=O)N(C)[C@@H](CC2CCCCC2)C(=O)N(C)CC(=O)N[C@@H](CCc2ccc(C(F)(F)F)c(Cl)c2)C(=O)N2CCC[C@H]2C(=O)NC2(CCCC2)C(=O)N(C)[C@@H](C2CCCCC2)C(=O)N(C)[C@H](C(=O)N2CCCCC2)CC(=O)N1C [Compound 1798] ([NMeL]V[Sar][Sar][NMeCha][Sar][hPhe(3-Cl-4-CF3)]P[Ac5c][NMeChg][NMeD]-Piperidide; lactam N-11)	1	50 to 100
CC[C@H](C)[C@@H]1NC(=O)[C@H](CC(C)C)N(C)C(=O)C[C@@H](C(=O)N2CCCCC2)N(C)C(=O)[C@H](C(C)C)N(C)C(=O)C2(CCCC2)NC(=O)[C@@H]2CCCN2C(=O)[C@H](CCc2ccc(C(F)(F)F)c(Cl)c2)NC(=O)CN(C)C(=O)[C@H](CC(C)C)N(C)C(=O)[C@@H]2CCN2C(=O)[C@H](C)N(C)C1=O [Compound 1803] ([NMeL]I[NMeA][Aze][NMeL][Sar][hPhe(3-Cl-4-CF3)]P[Ac5c][NMeV][NMeD]-Piperidide; lactam N-11)	5.3	100 to 500
CC[C@H](C)[C@@H]1NC(=O)[C@H](CC(C)C)N(C)C(=O)C[C@@H](C(=O)N2CCCCC2)N(C)C(=O)[C@H](C2CCCCC2)N(C)C(=O)C2(CCCC2)NC(=O)[C@@H]2CCCN2C(=O)[C@H](CCc2ccc(C(F)(F)F)c(Cl)c2)NC(=O)CN(C)C(=O)[C@H](Cc2ccc(C)cc2)N(C)C(=O)CN(C)C(=O)CN(C)C1=O [Compound 1804] ([NMeL]I[Sar][Sar][NMePhe(4-Me)][Sar][hPhe(3-Cl-4-CF3)]P[Ac5c][NMeChg][NMeD]-Piperidide; lactam N-11)	0.51	50 to 100
CC[C@H](C)[C@@H]1NC(=O)[C@H](C(C)C)N(C)C(=O)C[C@@H](C(=O)N2CCCCC2)N(C)C(=O)[C@H](C2CCCCC2)N(C)C(=O)C2(CCCC2)NC(=O)[C@@H]2CCCN2C(=O)[C@H](CCc2ccc(C(F)(F)F)c(Cl)c2)NC(=O)CN(C)C(=O)[C@H](CC2CCCCC2)N(C)C(=O)CN(C)C(=O)CN(C)C1=O [Compound 1807] ([NMeV]I[Sar][Sar][NMeCha][Sar][hPhe(3-Cl-4-CF3)]P[Ac5c][NMeChg][NMeD]-Piperidide; lactam N-11)	0.89	50 to 100
CC[C@H](C)[C@@H]1NC(=O)[C@H](CC(C)C)N(C)C(=O)C[C@@H](C(=O)N(C)C)N(C)C(=O)[C@H](C(C)C)N(C)C(=O)C2(CCCC2)NC(=O)[C@@H]2CCCN2C(=O)[C@H](CCc2ccc(C(F)(F)F)c(Cl)c2)NC(=O)CN(C)C(=O)[C@H](CC2CCCCC2)N(C)C(=O)CN(C)C(=O)CN(C)C1=O [Compound 1812] ([NMeL]I[Sar][Sar][NMeCha][Sar][hPhe(3-Cl-4-CF3)]P[Ac5c][NMeV][NMeD]-NMe2; lactam N-11)	0.56	50 to 100
CC[C@H](C)[C@@H]1NC(=O)[C@H](CC(C)C)N(C)C(=O)C[C@@H](C(=O)N2CCCCC2)N(C)C(=O)[C@H](C2CCCCC2)N(C)C(=O)C2(CCCC2)NC(=O)[C@@H]2CCCN2C(=O)[C@H](CCc2ccc(C(F)(F)F)c(Cl)c2)NC(=O)CN(C)C(=O)[C@H](CC2CCC2)N(C)C(=O)CN(C)C(=O)CN(C)C1=O [Compound 1817] ([NMeL]I[Sar][Sar][NMeCba][Sar][hPhe(3-Cl-4-CF3)]P[Ac5c][NMeChg][NMeD]-Piperidide; lactam N-11)	1.4	100 to 500
